Where a name gives a salt, the structure may show the parent alone. Read-outs that look alike come from different tables or passages of the source.
Assays:
Aurora A = target: T1, Aurora A (Homo sapiens, UniProt O14965); assay: Aurora A kinase inhibition (biochemical assay)
T1 sequence (O14965 1-403): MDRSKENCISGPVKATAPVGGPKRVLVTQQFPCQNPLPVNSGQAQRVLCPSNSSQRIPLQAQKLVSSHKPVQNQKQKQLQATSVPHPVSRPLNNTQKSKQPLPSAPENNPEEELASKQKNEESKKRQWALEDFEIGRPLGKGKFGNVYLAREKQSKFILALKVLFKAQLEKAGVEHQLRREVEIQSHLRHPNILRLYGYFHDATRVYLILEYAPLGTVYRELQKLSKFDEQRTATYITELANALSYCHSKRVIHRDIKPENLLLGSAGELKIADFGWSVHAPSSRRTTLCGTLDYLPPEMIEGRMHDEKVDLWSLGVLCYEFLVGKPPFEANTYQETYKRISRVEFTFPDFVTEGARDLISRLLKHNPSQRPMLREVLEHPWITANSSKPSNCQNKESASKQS

Aurora B = Aurora B (Homo sapiens, UniProt Q96GD4); assay: Aurora B kinase inhibition; format: biochemical; settings: Table 1
Aurora B, sequence (Q96GD4 whole entry): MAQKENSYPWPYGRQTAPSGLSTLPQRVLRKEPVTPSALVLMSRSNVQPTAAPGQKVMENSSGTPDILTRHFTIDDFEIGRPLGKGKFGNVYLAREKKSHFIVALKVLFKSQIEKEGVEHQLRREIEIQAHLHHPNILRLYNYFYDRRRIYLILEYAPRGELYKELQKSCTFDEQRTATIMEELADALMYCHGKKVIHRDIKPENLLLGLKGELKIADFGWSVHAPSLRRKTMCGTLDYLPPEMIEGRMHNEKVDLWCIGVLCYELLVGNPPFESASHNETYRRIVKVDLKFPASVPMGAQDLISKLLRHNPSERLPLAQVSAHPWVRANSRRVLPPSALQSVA

Haspin = target: T2, Haspin (Homo sapiens, UniProt Q8TF76); assay: Haspin kinase inhibition; format: biochemical; settings: Table 1
T2 sequence (Q8TF76 1-798): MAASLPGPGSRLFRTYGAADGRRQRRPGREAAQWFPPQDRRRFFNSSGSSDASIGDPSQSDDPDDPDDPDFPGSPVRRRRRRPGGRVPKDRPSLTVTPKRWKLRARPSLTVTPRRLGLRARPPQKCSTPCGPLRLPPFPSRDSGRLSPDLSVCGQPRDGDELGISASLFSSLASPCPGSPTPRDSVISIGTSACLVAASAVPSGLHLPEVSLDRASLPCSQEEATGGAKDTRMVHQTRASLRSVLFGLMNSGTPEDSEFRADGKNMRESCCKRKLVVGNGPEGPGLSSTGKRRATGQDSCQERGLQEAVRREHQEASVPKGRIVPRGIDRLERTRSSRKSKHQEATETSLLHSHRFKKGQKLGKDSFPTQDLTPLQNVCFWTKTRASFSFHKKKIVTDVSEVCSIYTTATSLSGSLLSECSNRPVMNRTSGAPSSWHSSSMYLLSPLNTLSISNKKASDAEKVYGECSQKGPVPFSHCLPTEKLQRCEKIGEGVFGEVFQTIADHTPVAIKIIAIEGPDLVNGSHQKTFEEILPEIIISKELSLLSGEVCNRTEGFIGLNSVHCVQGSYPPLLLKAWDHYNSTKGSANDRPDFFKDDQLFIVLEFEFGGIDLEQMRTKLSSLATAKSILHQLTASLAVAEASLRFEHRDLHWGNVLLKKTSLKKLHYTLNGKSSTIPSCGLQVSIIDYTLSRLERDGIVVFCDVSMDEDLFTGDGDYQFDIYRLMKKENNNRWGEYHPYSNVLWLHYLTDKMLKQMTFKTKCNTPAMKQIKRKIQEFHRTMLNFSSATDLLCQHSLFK
Description: Table 1 Activity of compounds fitting to general pharmacophore model against selected Ser/Thr kinases. | column: Haspin, IC50, μM

[1] = test system: HL-60 (acute promyelocytic leukemia); assay: MTT cytotoxicity, HL-60; format: cell-based; settings: Homo sapiens; HL-60, MTT, 72 h
Description: (§1) All cells lines were purchased in ATCC (Manassas, VA, USA), except for human primary fibroblasts (HFB), which were a generous gift from Dashinimaev E.B. (Koltsov Institute of Developmental Biology). H1299 (lung adenocarcinoma), H23 (lung adenocarcinoma), Colo320 (colon carcinoma), RS4;11 (acute lymphoblastic leukemia), PC3 (prostate adenocarcinoma) and HL-60 (acute promyelocytic leukemia) were cultivated in RPMI-1640 medium, with addition of 10% fetal calf serum (HyClone, South Logan, Utah, USA) and 2 mM L-Glutamine at 37 °C, 5% CО2. MDA-MB-453 (mammary adenocarcinoma), A549 (lung adenocarcinoma), HCT-116 (colon carcinoma), A431 (epidermoid carcinoma), MDA-MB-231 (mammary adenocarcinoma), BxPC3 (pancreatic adenocarcinoma), MEF (mouse embryonic fibroblasts, SV-40 immortalized), MEF Bax^−/−/Bak^−/− knockout cells (mouse embryonic fibroblasts, SV-40 immortalized, resistant to apoptosis) were cultivated in DMEM medium, with addition of 10% fetal calf serum (HyClone) and 2 mM L-Glutamine at 37 °C, 5% CО2.
(§2) Cells were seeded in 96-well plates (Corning, NY, USA): 5000 cells per well for adhesive cultures and cells, 25,000 cells per well for suspension cultures. Analyzed substances were added in 0.1–50 μM concentration range, with 2 × dilutions, and incubated for 72 h at 37 °C, 5% CО2. After incubation 20 uL of 5 mg/mL of water solution of 3-(4,5-dimethylthiazol-2-yl)-2,5-diphenyltetrazolium bromide (MTT, PANEKO, Moscow, Russia) was added to the cells and they were incubated for additional 4 h. After the incubation the medium was aspirated, cells were dissolved in 100 uL of DMSO and the optical density was measured at 570 nm with a МultiscanFC plate reader (ThermoScientific, Cambridge, MA, USA). The percentage of surviving cells at each dose was calculated by dividing the optical density of treated cells by the optical density of untreated control (which was taken as 100%). The IC50s were calculated in GraphPad Prism 5.0.

[2] = test system: H23 (lung adenocarcinoma); assay: MTT cytotoxicity, H23; format: cell-based; settings: 72 h
Description: as §1, §2

[3] = test system: H1299 (lung adenocarcinoma); assay: MTT cytotoxicity, H1299; format: cell-based; settings: Homo sapiens, NCI-H1299, 72 h
Description: as §1, §2

[4] = test system: PC3 (prostate adenocarcinoma); assay: MTT cytotoxicity, PC3; format: cell-based; settings: 72 h
Description: as §1, §2

[5] = test system: MDA-MB-453 (mammary adenocarcinoma); assay: MTT cytotoxicity, MDA-MB-453; format: cell-based; settings: Homo sapiens; MDA-MB-453, MTT, 72 h
Description: as §1, §2

[6] = test system: RS4;11 (acute lymphoblastic leukemia); assay: MTT cytotoxicity, RS4;11; format: cell-based; settings: Homo sapiens; RS4;11, MTT, 72 h
Description: as §1, §2

[7] = test system: A-549 (lung adenocarcinoma); assay: MTT cytotoxicity, A-549; format: cell-based; settings: Homo sapiens, A549; A-549, MTT, 72 h
Description: as §1, §2

[8] = test system: HCT-116 (colon carcinoma); assay: MTT cytotoxicity, HCT-116; format: cell-based; settings: Homo sapiens; HCT-116, MTT, 72 h
Description: as §1, §2

MTT cytotoxicity, HFB = format: cell-based; settings: human, human primary fibroblasts (HFB)
Description: as §1, §2

[9] = test system: A431 (epidermoid carcinoma); assay: MTT cytotoxicity, A431; format: cell-based; settings: Homo sapiens, A-431, 72 h
Description: as §1, §2

[10] = test system: Colo-320 (colon carcinoma); assay: MTT cytotoxicity, Colo-320; format: cell-based; settings: Homo sapiens; Colo-320, MTT, 72 h
Description: as §1, §2

[11] = test system: MDA-MB231 (mammary adenocarcinoma); assay: MTT cytotoxicity, MDA-MB231; format: cell-based; settings: Homo sapiens, MDA-MB-231, 72 h
Description: as §1, §2

[12] = test system: BxPC3 (pancreatic adenocarcinoma); assay: MTT cytotoxicity, BxPC3; format: cell-based; settings: Homo sapiens, BXPC-3, 72 h
Description: as §1, §2

[13] = MTT cytotoxicity, MEFs Dko; format: cell-based; settings: mouse, MEFs Dko (bax−/−bak−/−)
Description: as §1, §2

MTT cytotoxicity, MEF WT = format: cell-based; settings: mouse
Description: as §1, §2

[14] = Table 1, read-out: Aurora A, IC50
[15] = Table 2, Mean ± SEM, four repeats, read-out: Aurora A kinase inhibition IC50

## CCCc1cnc(Nc2cccc(C3CCN(C(=O)C(C)(C)N)CC3)n2)s1 [Compound 1, 2-Amino-2-methyl-1-(4-(6-(5-propylthiazole-2-ylamino)pyridin-2-yl)piperidin-1-yl)propan-1-one hydrochloride]
Aurora A; [14]
  IC50: 2.06 ± 0.15 µM
Aurora B
  IC50: 1.45 ± 0.17 µM
Haspin
  IC50: 1.49 ± 0.15 µM

## CCCc1cnc(Nc2cccc(C3CCN(C(=O)CN(C)C)CC3)n2)s1 [Compound 3, 2-(Dimethylamino)-1-(4-(6-(5-propylthiazol-2-ylamino)pyridin2-yl)piperidin-1-yl)ethanone]
Aurora A; [14]
  IC50: 1.95 ± 0.22 µM
Aurora B
  IC50: 1.76 ± 0.16 µM
Haspin
  IC50: 7.06 ± 0.68 µM

## CCCc1cnc(Nc2cccc(C3CCN(C(=O)CN)CC3)n2)s1 [Compound 4, 2-Amino-1-(4-(6-(5-propylthiazol-2-ylamino)pyridin-2-yl)piperidin-1-yl)ethanone]
Aurora A; [14]
  IC50: 2.08 ± 0.25 µM
Aurora B
  IC50: 1.72 ± 0.19 µM
Haspin
  IC50: 0.08 ± 0.008 µM

## CCCc1cnc(Nc2cccc(C3CCN(C(=O)CNC)CC3)n2)s1 [Compound 5, 2-(Methylamino)-1-(4-(6-(5-propylthiazol-2-ylamino)pyridin-2-yl)piperidin-1-yl)ethanone]
Aurora A; [14]
  IC50: 1.44 ± 0.13 µM
Aurora B
  IC50: 0.91 ± 0.08 µM
Haspin
  IC50: 0.43 ± 0.034 µM

## CCCc1cnc(Nc2cccc(C3CCN(C(=O)[C@@H](C)N)CC3)n2)s1 [Compound 6, (R)-2-Amino-1-(4-(6-(5-propylthiazol-2-ylamino)-pyridin-2-yl)piperidin-1-yl)propan-1-one]
Aurora A; [14]
  IC50: 1.67 ± 0.17 µM
Aurora B
  IC50: 1.75 ± 0.18 µM
Haspin
  IC50: 1.12 ± 0.11 µM

## CCCc1cnc(Nc2cc(C(C)C)nc(C3CCN(C(=O)C(C)(C)N)CC3)n2)s1 [Compound 7, 2-Amino-1-(4-(4-isopropyl-6-(5-propylthiazol-2-ylamino)pyrimidin-2-yl)piperidin-1-yl)-2-methylpropan-1-one]
Aurora A; [14]
  IC50: 2.79 ± 0.3 µM
Aurora B
  IC50: 2.25 ± 0.23 µM
Haspin
  IC50: 3.67 ± 0.37 µM

## CCCc1cnc(Nc2cc(CC)nc(C3CCN(C(=O)C(C)(C)N)CC3)n2)s1 [Compound 8, 2-Amino-1-(4-(4-ethyl-6-(5-propylthiazol-2-ylamino)pyrimidin-2-yl)piperidin-1-yl)-2-methylpropan-1-one]
Aurora A; [14]
  IC50: 3.58 ± 0.43 µM
Aurora B
  IC50: 2.05 ± 0.24 µM
Haspin
  IC50: 2.9 ± 0.43 µM

## CC(C)(N)C(=O)N1CCC(c2cccc(Nc3ncc(-c4ccccc4)s3)n2)CC1 [Compound 9, 2-Amino-2-methyl-1-(4-(6-(5-phenylthiazol-2-ylamino)pyridine-2-yl)propan-1-one hydrochloride]
Aurora A; [14]
  IC50: 3.17 ± 0.33 µM
Aurora B
  IC50: 8.02 ± 0.8 µM
Haspin
  IC50: 0.27 ± 0.019 µM

## O=C(C1CNCCO1)N1CCC(c2cccc(Nc3ncc(-c4ccccc4)s3)n2)CC1 (stereo not shown) [Compound 10, Morpholin-2-yl(4-(6-(5-phenylthiazol-2-ylamino)pyridin-2-yl)piperidin-1-yl)methanone]
Aurora A; [14]
  IC50: 8.38 ± 0.84 µM
Aurora B
  IC50: 0.84 ± 0.09 µM
Haspin
  IC50: 7.8 ± 0.81 µM

## Cc1cc(Nc2ncc(C)s2)nc(CC2CCN(C(=O)c3cccc(Cl)c3F)CC2)n1 [Compound 11, (3-Chloro-2-fluoro-phenyl)-{4-[4-methyl-6-(5-methyl-thiazol-2-ylamino)-pyrimidin-2-ylmethyl]-piperidin-1-yl}-methanone]
Aurora A; [15]
  IC50: 0.012 ± 0.0011 µM
[1]
  IC50: 5.4 ± 0.3 µM
[2]
  IC50: 3.9 ± 0.15 µM
[3]
  IC50: 1.7 ± 0.2 µM
[4]
  IC50: 3.2 ± 0.2 µM
[5]
  IC50: 10 ± 1.2 µM
[6]
  IC50: 0.5 ± 0.04 µM
[7]
  IC50: 5.6 ± 0.5 µM
[8]
  IC50: 3 ± 0.4 µM
MTT cytotoxicity, HFB
  IC50 at 72 h: 3.6 ± 0.4 µM
[9]
  IC50: 4.6 ± 0.5 µM
[10]
  IC50: 0.8 ± 0.09 µM
[11]
  IC50: 7.3 ± 0.8 µM
[12]
  IC50: 2 ± 0.021 µM
[13]
  IC50 at 48 h: 3.1 ± 0.32 µM
MTT cytotoxicity, MEF WT
  IC50 at 48 h: 1 ± 0.2 µM
other
  melting point: 211 to 213 °C

## Cc1cc(Nc2nccs2)nc(CC2CCN(C(=O)c3cccc(Cl)c3F)CC2)n1 [Compound 12, (3-Chloro-2-fluoro-phenyl)-{4-[4-methyl-6-(thiazol-2-ylamino)-pyrimidin-2-ylmethyl]-piperidin-1-yl}-methanone]
Aurora A; [15]
  IC50: 0.0351 ± 0.00036 µM
[1]
  IC50: 39.8 ± 3.4 µM
[2]
  IC50: 6.8 ± 0.5 µM
[3]
  IC50: 5 ± 0.4 µM
[4]
  IC50: 6 ± 0.7 µM
[5]
  IC50: 16.3 ± 1.7 µM
[6]
  IC50: 1.5 ± 0.2 µM
[7]
  IC50: 10 ± 1.2 µM
[8]
  IC50: 6.5 ± 0.7 µM
MTT cytotoxicity, HFB
  IC50 at 72 h: 3.8 ± 0.4 µM
[9]
  IC50: 10.2 ± 1.2 µM
[10]
  IC50: 2 ± 0.15 µM
[11]
  IC50: 28.2 ± 0.3 µM
[12]
  IC50: 6 ± 0.59 µM
[13]
  IC50 at 48 h: 11.8 ± 1.2 µM
MTT cytotoxicity, MEF WT
  IC50 at 48 h: 5.8 ± 0.5 µM
other
  melting point: 207 to 209 °C

From article PMC4932537, “Search for Potent and Selective Aurora A Inhibitors Based on General Ser/Thr Kinase Pharmacophore Model” (Pharmaceuticals, 2016)
